Key:
Botrytis cinerea = test: microbe, parasite or virus in culture; type: cell-based; details: read-out: Inhibition rate (%)
Gibberella zea = test: organism not typed; type: cell-based; details: read-out: Inhibition rate (%)
Phytophthora infestans = test: microbe, parasite or virus in culture; type: cell-based; details: read-out: Inhibition rate (%)
Bipolaris sorokiniana = test: microbe, parasite or virus in culture; type: cell-based; details: read-out: Inhibition rate (%)
Fusarium oxysporum = test: microbe, parasite or virus in culture; type: cell-based; details: read-out: Inhibition rate (%)
Ustilaginoidea virens = test: microbe, parasite or virus in culture; type: cell-based
B. cinerea = test: In vitro inhibition, pathogens from tropical plants; type: cell-based; details: Botrytis cinerea
Protocol: (§1) 5 wt % formulation of the active compound of Formula (I) was prepared into a solution (300 mg/L). To a sterilized Erlenmeyer flask, 2 mL of the solution and 18 mL of PDA culture medium (50° C.) were added. The mixture was shaken uniformly and dumped into two dishes whose diameter was 9 cm to yield two toxic PDA culture mediums having a concentration of 30 mg/L. Various cultured pathogens were punched at the edge of colony by a puncher having a diameter of 5 mm respectively, and the obtained pieces were transferred to the center of the toxic PDA culture medium by an inoculating needle and cultured in an incubator at 25° C. Repeat the above steps. According to the growth status of CK colony, the colony diameter of pathogens was measured by crossing method with a caliper and thereby a corrected inhibition percentage was calculated.
(§2) For each colony, diameter was measured twice by crossing method and the average was practicable. The colony growth inhibition rate was calculated as follows: Colony growth inhibition rate %=(diameter of CK colony−diameter of target colony)×100/diameter of CK colony
(§3) Following the above method, as targets 17 pathogens originated from tropical plants were tested. The pathogens were Rhizopus sp., Aspergillus, Colletotrichum gloeosporioides Penz, Banana Fusarium wilt, Colletouichum coccodes, Hughas, B. heveas, Cucumber mosaic virusstrain banana, Banana Sigatoka Leaf Spot Disease, Colletotrichum gloeosporioides, Colletotrichum musae (Berk & Curt) Arx, Botryodiplodia theobromae, Cladosporium cucumerinum Ellis et Arthur, Periconia hevenae, Colletotrichum gloeosporioides, B. cinerea, Diplodia natalensis, and Curvularia.

Banana Fusarium wilt = test: as above; type: cell-based
Protocol: as §1, §2, §3

[1] = tested on: Banana Sigatoka Leaf Spot Disease; test: as above; type: cell-based
Protocol: as §1, §2, §3

[2] = tested on: Botryodiplodia theobromae; test: as above; type: cell-based; details: Lasiodiplodia theobromae
Protocol: as §1, §2, §3

[3] = tested on: Cladosporium cucumerinum Ellis et Arthur; test: as above; type: cell-based
Protocol: as §1, §2, §3

[4] = tested on: Colletouichum coccodes. Hughas; test: as above; type: cell-based
Protocol: as §1, §2, §3

Rhizopus sp. = test: as above; type: cell-based
Protocol: as §1, §2, §3

Acute oral test = type: in vivo, rat; details: in vivo
Protocol: (§4) The toxicological indexes of the compound were tested following the standard GB15670-1995 “Toxicological test methods of pesticides for registration” by Tongji Medical College, Huazhong University of Science and Technology.

rat = test: Acute oral test; type: in vivo; details: rat
Protocol: as §4

rabbit's eye = test: Eye stimulation test; type: in vivo
Protocol: as §4

Ames test = type: cell-based
Protocol: as §4

bee = test: Acute contact toxicity test on bee; type: in vivo
Protocol: After acute toxicity and Ames test had been finished, environmental toxicity test was conducted following “Guideline for Environmental Safety Evaluation of Chemical Pesticides” of Agriculture Ministry of China by Shenyang Chemical Research Institute/Supervision and Test Center for Pesticide Safety Evaluation and Quality Control.

[5] = tested on: Cucumber scab (strain HX); test: In vivo micro-screening assay
Protocol: In Vivo Micro-Screening Assay
To further study the fungicidal spectrum of the compound of Formula (I), indoor in vivo micro-screening assay were carried out on cucumber gray mold, cucumber scab, cucumber sclerotinia rot, cucumber brown spot, pepper phytophthora blight, and rice sheath blight.
Cucumber scab strain: HX; cucumber brown spot strain: SDHGHB060509; cucumber sclerotinia rot strain: HGJH; pepper phytophthora blight strain: NSGP; and rice sheath blight strain: WK-1.
Medicament to be tested and medicament of control groups were prepared as needed in a sunny morning. Cucumber gray mold, cucumber scab, cucumber brown spot, cucumber sclerotinia rot, and rice sheath blight were medicated by spray, and after air dry, pathogens of cucumber scab and of cucumber brown spot were inoculated through spraying spore suspension respectively, pathogens of cucumber gray mold, of cucumber sclerotinia rot, and of rice sheath blight were inoculated through lawn foliage. Pepper phytophthora blight was medicated and inoculated by root-irrigation. Subsequently, all seedlings were cultured in wet environment.
After the disease of control groups were serious, spot area, disease index, and the diseased seedling rate were investigated to calculate the efficacy. Cucumber scab, cucumber brown spot, and pepper phytophthora blight were investigated by grading method. The spot extension area of cucumber gray mold and of rice sheath blight was investigated. The diseased seedling rate of cucumber sclerotinia rot was investigated. Disease index=Σ(amount of infected diseased leaves in a grade×relative value of the grade)×100/(total amount of leaves×9); Diseased seedling rate (%)=(total amount of seedlings−amount of diseased seedlings)/total amount of seedlings×100% Prevention and treatment effect (%)=(disease of control group−disease of experiment group)/disease of control group×100%

[6] = 0.1 mg/L, read-out: Inhibition rate (%)
[7] = 0.5 mg/L, read-out: Inhibition rate (%)
[8] = 1 mg/L, read-out: Inhibition rate (%)
[9] = 5 mg/L, read-out: Inhibition rate (%)
[10] = 10 mg/L, read-out: Inhibition rate (%)
[11] = 25 mg/L, read-out: Inhibition rate (%)
[12] = 20 mg/L, read-out: Inhibition rate (%)
[13] = 15 mg/L, read-out: Inhibition rate (%)

CO/C=C(/C(=O)OC)c1ccccc1CSc1nc2cc(OC)ccc2s1 [Compound of Formula (I), (E)-methyl 3-methoxy-2-(2-((5-methoxy-benzothiazol-2-ylthio)methyl)phenyl)acrylate]
inhibition at 0.3 µg/mL (Botrytis cinerea; 0.3 mg/L): 42.3%
inhibition at 3 µg/mL (Botrytis cinerea; 3 mg/L): 42.7%
inhibition at 30 µg/mL (Botrytis cinerea; 30 mg/L): 54.9%
inhibition at 0.3 µg/mL (Gibberella zea): 34.9%
inhibition at 3 µg/mL (Gibberella zea): 45.9%
inhibition at 30 µg/mL (Gibberella zea): 54.6%
inhibition at 0.3 µg/mL (Phytophthora infestans): 15.3%
inhibition at 3 µg/mL (Phytophthora infestans): 33.7%
inhibition at 30 µg/mL (Phytophthora infestans): 38%
inhibition at 0.3 µg/mL (Bipolaris sorokiniana; 0.3 mg/L): 18.8%
inhibition at 3 µg/mL (Bipolaris sorokiniana; 3 mg/L): 40.6%
inhibition at 30 µg/mL (Bipolaris sorokiniana; 30 mg/L): 43.8%
inhibition at 0.3 µg/mL (Fusarium oxysporum; 0.3 mg/L): 29.4%
inhibition at 3 µg/mL (Fusarium oxysporum; 3 mg/L): 36.1%
inhibition at 30 µg/mL (Fusarium oxysporum; 30 mg/L): 43.7%
in vitro effect (Ustilaginoidea virens): particularly effective
inhibition at 0.3 µg/mL (Ustilaginoidea virens; Ustilaginoidea virens, 0.3 mg/L, read-out: Inhibition rate (%)): 74.8%
inhibition at 3 µg/mL (Ustilaginoidea virens; Ustilaginoidea virens, 3 mg/L, read-out: Inhibition rate (%)): 100%
inhibition at 30 µg/mL (Ustilaginoidea virens; Ustilaginoidea virens, 30 mg/L, read-out: Inhibition rate (%)): 100%
EC50 (B. cinerea): 1 µg/mL
inhibition at 0.1 µg/mL (B. cinerea; [6]): 12.8%
inhibition at 0.5 µg/mL (B. cinerea; [7]): 35.1%
inhibition at 1 µg/mL (B. cinerea; [8]): 54.5%
inhibition at 5 µg/mL (B. cinerea; [9]): 73.3%
inhibition at 10 µg/mL (B. cinerea; [10]): 88.1%
EC50 (Banana Fusarium wilt): 9.22 µg/mL
inhibition at 1 µg/mL (Banana Fusarium wilt; [8]): 13.5%
inhibition at 5 µg/mL (Banana Fusarium wilt; [9]): 30.2%
inhibition at 10 µg/mL (Banana Fusarium wilt; [10]): 60.5%
inhibition at 25 µg/mL (Banana Fusarium wilt; [11]): 67.6%
inhibition at 50 µg/mL (Banana Fusarium wilt; 50 mg/L, read-out: Inhibition rate (%)): 80.4%
EC50 [1]: 1.5 µg/mL
inhibition at 0.1 µg/mL [1, 6]: 17.2%
inhibition at 1 µg/mL [1, 8]: 43.5%
inhibition at 5 µg/mL [1, 9]: 63.7%
inhibition at 10 µg/mL [1, 10]: 77.9%
inhibition at 20 µg/mL [1, 12]: 85.8%
EC50 [2]: 3.7 µg/mL
inhibition at 0.5 µg/mL [2, 7]: 14.6%
inhibition at 1 µg/mL [2, 8]: 31.7%
inhibition at 5 µg/mL [2, 9]: 51.6%
inhibition at 10 µg/mL [2, 10]: 65.8%
inhibition at 20 µg/mL [2, 12]: 84%
EC50 [3]: 4.84 µg/mL
inhibition at 1 µg/mL [3, 8]: 6.77%
inhibition at 2.5 µg/mL ([3]; 2.5 mg/L, read-out: Inhibition rate (%)): 28.3%
inhibition at 5 µg/mL [3, 9]: 55%
inhibition at 10 µg/mL [3, 10]: 72.1%
inhibition at 20 µg/mL [3, 12]: 84.9%
EC50 [4]: 7.13 µg/mL
inhibition at 0.1 µg/mL [4, 6]: 10.1%
inhibition at 2 µg/mL ([4]; 2 mg/L, read-out: Inhibition rate (%)): 22.3%
inhibition at 5 µg/mL [4, 9]: 42.1%
inhibition at 15 µg/mL [4, 13]: 61.3%
inhibition at 25 µg/mL [4, 11]: 83.5%
EC50 (Rhizopus sp.): 4.18 µg/mL
inhibition at 1 µg/mL (Rhizopus sp.; [8]): 18.4%
inhibition at 5 µg/mL (Rhizopus sp.; [9]): 53.1%
inhibition at 10 µg/mL (Rhizopus sp.; [10]): 69.3%
inhibition at 15 µg/mL (Rhizopus sp.; [13]): 83.6%
inhibition at 20 µg/mL (Rhizopus sp.; [12]): 88.5%
LD50 (Acute oral test; Female rat): > 5000 mg/kg
LD50 (Acute oral test; Male rat): > 5000 mg/kg
Toxicity (acute oral test) (rat): Low toxicity
Eye stimulation (rabbit's eye): Mild stimulation on rabbit's eye
Ames test (Ames test): Negative
LC50 (48 hrs) (bee): LC50 (48 hrs) > 100 μg a.i./per bee
prevention and treatment effect [5]: good prevention and treatment effect
Disease index ([5]; 100 mg/L): 0
Efficacy (%) ([5]; 100 mg/L): 100.00%
Disease index ([5]; 500 mg/L): 0
Efficacy (%) ([5]; 500 mg/L): 100.00%
